Source: a melting point compilation (Tetko et al.; mined from patent text by program, amines drawn as free bases though some values may be those of a salt)

Row | Structure (SMILES) | melting point [°C]
1 | CN(Cc1ccc(Cl)c(Cl)c1)C(=O)C1=C(O)C(=O)N(CCC(=O)O)C1 | 183 to 184
2 | CC(C)(O)c1ccc(CC(=O)Nc2cccnc2Oc2ccc(F)cc2)cc1 | 135 to 137
3 | Cn1c(CC(=O)NC2CN3CCC2CC3)cc2ccccc21 (stereo not given) | 185 to 187
4 | CON=C(c1cc(C)no1)c1ccccc1COc1cc(C)ccc1C | 107 to 108
5 | COC(=O)c1cc(I)c(C(F)(F)F)cc1NC(C)=O | 96 to 98
6 | Cc1ccc(CCCCCCCCCCC(Cl)(Cl)C(=O)O)cc1 | 58 to 59
7 | O=C1OC(c2ccccc2)CN1Sc1ccc(Cl)cc1 (stereo not given) | 98 to 99
8 | NC(=O)c1cnc(C(N)=O)cn1 | > 270
9 | CCOC(=O)C1C(=O)N(CC)c2cc3c(cc21)OCC3 (stereo not given) | 82 to 84
10 | CC(C)n1nc(-c2c(-c3ccccc3)nn3ccc(N4CCN(c5ccccc5)CC4)cc23)ccc1=O | > 240
11 | Cn1nc2c(cc1=O)CCSc1ccccc1-2 | 139 to 140
12 | CC1(C)Oc2ccc(S(=O)(=O)c3ccccc3)cc2C(N)C1O (stereo not given) | 160 to 163
13 | CN1C(=O)CN=C(c2ccccc2F)c2cc(NC(=O)NCc3ccccc3)ccc21 | 174 to 178
14 | CCOC(=O)C(=O)Nc1c([N+](=O)[O-])sc2c(F)cccc12 | 148 to 151
15 | CCOC(=O)C1(c2ccccc2)CCN(C2=CCC(C#N)(c3ccccn3)CC2)CC1 (stereo not given) | 160
16 | CC(CCNc1cccc(-c2ccnc3c(C(=O)c4cccs4)cnn23)c1)c1ccccc1 (stereo not given) | 64 to 68
17 | COc1cc2c(cc1OC)[C@@H]1C[C@H](NC(=O)OC(C)(C)C)[C@@H](N3C[C@H](CF)CC3=O)CN1CC2 | > 300
18 | COc1ccc(-c2nnc(N3CCN(C)CC3)nc2-c2ccc(OC)cc2)cc1 | 158 to 160
19 | COc1c(C#N)cc([N+](=O)[O-])cc1C#N | 144 to 148
20 | CCCCCC(=O)OCC(CCn1cnc2c(=O)[nH]c(N)nc21)COC(=O)CCCCC | 198
21 | CN1C(=O)CCc2cccc(N3CCN(CCCCOc4ccc5c(n4)NC(=O)NCC5)CC3)c21 | 80 to 82

Row | Structure (SMILES) | melting point [°C]
22 | OCc1ccc(OCCCCCCCCCCC2c3c(c4ccccc4c4ccccc34)-c3c2c2ccccc2c2ccccc32)cc1 | 64 to 66
23 | COC(=O)c1cc(C)c(C)cc1C(=O)OC | 54 to 55
24 | CC(C)(C)[C@@H](CO)NC(=O)[C@@H](CC(=O)OCc1ccccc1)n1ccc(-c2ccc(-c3ccc(C(N)=O)cc3)cc2)c1 | 201 to 203
25 | Cc1ccccc1C(CCC(=O)O)Oc1cc(OCc2ccsc2)ccc1C(=O)C=Cc1ccccn1 (racemic) | 65 to 70
26 | O=C1OC2(CCN(CCC(O)c3ccccc3)CC2)c2ccccc21 (stereo not given) | 144 to 146
27 | CCCCCCCCCCCc1nnc(CO)n1-c1ccccc1C(=O)c1ccccc1 | 111 to 112
28 | C=CC=CCC1=C(C)C(OC(=O)C2C(C=C(C)C)C2(C)C)CC1=O (stereo not given) | 57
29 | CCc1ccccc1-c1nc(-c2ccccc2)n[nH]1 | 124 to 126
30 | ClCc1c(-c2ccccc2)c(-c2ccccc2)nn1Cc1ccccc1 | 99
31 | CCOC(=O)C(C)(C(=O)Nc1cc(Cl)cc(Cl)c1)S(C)=O (stereo not given) | 124 to 127
32 | CC(C)Oc1cc(-n2c(=O)cc(C(F)(F)F)n(C)c2=O)c(F)cc1Cl | 90 to 93
33 | C=C1c2cnccc2CC(=O)c2ccccc21 | 98 to 110
34 | Cc1cc(-c2c3ccccc3c(C)c3sc4ccccc4c23)cc(C)c1O | 147 to 149
35 | COc1cccc2cc(CNCCNC(=O)C34CC5CC(CC3C5)C4)oc12 | 103 to 107
36 | CC(C)(C)c1ccc(OP2OCC3(CO2)COP(Oc2ccc(C(C)(C)C)cc2C(C)(C)C)OC3)c(C(C)(C)C)c1 (stereo not given) | 174 to 177
37 | O=c1[nH]nc(Cl)cc1Nc1ccncn1 | > 300
38 | COc1cc(NC(=O)CC(C)=O)c(OC)cc1Cl | 105 to 106
39 | CC1(C)CN=C2C(=O)c3cc(S(=O)(=O)N4CCCC4)ccc3N2C1 | 200 to 201
40 | COc1ccc(-c2n[nH]c(N=CN(C)C)c2C#N)cc1 | 169 to 171
41 | CCn1cc(C(=O)O)c(=O)c2c(C)c(F)c(F)c(F)c21 | 203 to 204
42 | O=C1CC2CCc3ccccc3C2=NN1c1ccccc1O (stereo not given) | 221 to 222

Row | Structure (SMILES) | melting point [°C]
43 | CCCCCNS(=O)(=O)NC(=O)/C(C)=C/c1ccc(OC(C)C)cc1Oc1ncc(C(F)(F)F)cc1Cl | 138
44 | COc1ccc(-n2nc(Cl)cc2-c2ccc(OCCNC(N)=O)cc2)cc1 | 140 to 142
45 | O=Cc1ccc(CBr)c(Cl)c1 | 64 to 66
46 | CNC(=O)NN(CC(=O)OC)c1ccccc1 | 122
47 | CC1CCCN(S(=O)(=O)c2cc(Cl)cc(C(=O)O)c2)C1 (stereo not given) | 177 to 179
48 | COc1ccnc(CCc2nc3cc(-c4ccc(S(=O)(=O)N5CCNC(=O)CC5)cc4)cnc3[nH]2)c1 | 230 to 232
49 | Cc1ccc(S(=O)(=O)OCC2(C)Cc3cc(Cl)cc(O)c3O2)cc1 (stereo not given) | 135 to 137
50 | CC(Cc1ccc(C(=O)OCOC(=O)C(C)(C)C)cc1)NCC(O)c1ccc(O)c(CO)c1 (stereo not given) | 55 to 57
51 | CCCCCC(=O)NC(C)(C)C(=O)O | 141 to 143
52 | N=C(Nc1cccc(NC(=O)/C=C/c2cccc(Cl)c2)c1)c1ccccc1 | 260 to 262
53 | Oc1ccc(CCCc2ccc(O)cc2O)cc1 | 92 to 93
54 | CCN(CC)CCSC1=C(C#N)C(c2cccnc2)(c2ccc(OC)c(OC)c2)C(=O)N1 (stereo not given) | 133 to 135
55 | N=C(N)N1CC(c2ccccc2)C(c2ccc(Cl)cc2)=N1 (stereo not given) | 187 to 189
56 | CCN1C(=O)CC(=O)N(CC)C1=O | 52
57 | CC(=O)N(CC1CC(c2ccc(Cl)cc2)=NO1)c1nnc(C)s1 (stereo not given) | 195 to 197
58 | c1ccc2c(c1)cnn2-c1nc(NC2CCCCC2)c2ccccc2n1 | 278 to 281
59 | O=C(O)CCc1cn(Cc2ccc(OCc3cccc(-c4cnccn4)c3)cc2)cc1-c1ccccc1 | 91 to 92
60 | FC(F)(F)c1ccc2nc(N3CCN(Cc4c(Cl)cccc4Cl)CC3)[nH]c2c1 | 254 to 256
61 | O=C(O)Cn1cc(Cl)cnc1=O | 186 to 188
62 | COc1cc(OC)nc(NN)n1 | 94
63 | Sc1nc(CCCC2CCCCC2)c[nH]1 | 176 to 177

Second part, the molecule after the results:

Row | melting point [°C] | Structure (SMILES)
64 | 138 to 140 | CC(C)c1cccc(C(C)C)c1NC(=O)CN1CCN(CCSc2nc3cccc(C(C)(C)C)c3o2)CC1
65 | 92 to 93 | CCC=C(C)C(O)C(CC)CC (stereo not given)
66 | 208 to 209 | Cc1cc2c(cc1Cl)C=C(C(=O)O)C(C(F)(F)F)O2 (stereo not given)
67 | 214 to 216 | CC(C)(NC(=O)C1=C(C(=O)Nc2cc(OC3CCCC3)c(Cl)cc2F)CCCC1)c1ccc(Br)cc1
68 | 206 to 208 | CC(C)(c1ccccc1)N1CC(O)=C(c2ccccc2)C1=O
69 | 119 | CCCCN1C[C@@H](C(=O)O)N(C(=O)[C@H](C)CSC(=O)c2ccccc2)C1=O
70 | 268 to 269 | COc1ccc(C2(C3CCCCC3=O)CCC(=O)CC2)c2c1OCCO2 (stereo not given)
71 | 78 to 79 | COc1cc(C#N)ccc1C(Br)Br
72 | 255 to 257 | CC(=O)c1ccc2c(c1)C1(c3ccccc3-2)c2ccccc2-c2ccc(C(C)=O)cc21
73 | 154 to 155 | O=C(CCCCl)Nc1ccc2c(c1NC(=O)CCCCl)C(=O)c1ccccc1C2=O
74 | 222 to 223 | CC(C)(O)c1nnc2ccc(-c3c(-c4ccc(F)cc4F)nc4n3CCC4)nn12
75 | 155 | Cc1c(-c2cc(C(=O)O)c(Cl)cc2F)nn(C)c1C(F)(F)F
76 | 80 to 82 | COC(=O)C1=Cc2ccccc2N(C)CCC1
77 | 168 to 172 | O=[N+]([O-])c1ccc(C2=NCCCN2)cc1
78 | 66 to 67 | CC(=O)NCCCCc1ccc(C(=O)C(C)Cl)cc1 (stereo not given)
79 | 138 to 140 | C=CCOc1ccc2c(C)c(C(=O)C=Cc3cc(OC)c(OC)c(OC)c3)c(=O)oc2c1
80 | 129 to 130 | O=S(=O)(Nc1ccccc1OCc1ccc2ccccc2n1)c1ccc(Cl)cc1
81 | 232 to 234 | CC(O)Cc1c(O)c2cccnc2n(-c2ccc(Cl)c(Cl)c2)c1=O (stereo not given)
82 | 130 to 132 | Cc1cc2c3c(ccc2cc1C(=O)c1ccc(Cl)cc1)OC(=O)C3(C)C

Row | melting point [°C] | Structure (SMILES)
83 | 223 to 225 | OCc1cc(O)ccc1/C=C/c1ccc(O)cc1
84 | 122 | COc1ccc(S(=O)(=O)C(C)(Cc2ccc(OCCCN3CCN(c4cccc(Cl)c4)CC3)cc2)C(=O)NO)cc1 (stereo not given)
85 | 210 to 213 | COCc1c[nH]c2c([N+](=O)[O-])ccc(C)c2c1=O
86 | 130 to 132 | N#CCOc1ccc2cc(Br)ccc2c1Br
87 | 239 to 241 | COc1ccc(NCCn2nc(O)c3[nH]c4cc(Cl)ccc4c(=O)c3c2=O)cc1
88 | 125 to 127 | CN(CC1OCCO1)c1nccc(Oc2ccc(NC(=O)c3cc(F)cc(N4CCCCC4)c3)c3ccccc23)n1
89 | 202 to 204 | CSc1ccc(-c2n[nH]c(=O)cc2-c2ccc(Cl)cc2)cc1
90 | 270 | C=CC(=O)Nc1ccc2c(Nc3cccc(C)c3)ncnc2c1
91 | 94 to 105 | CC(=O)N[C@@H](CC(C)C)C(=O)N[C@@H](C(C)C)[C@@H](O)c1c(-c2ccccc2)c1=O
92 | 75 to 77 | COc1c(C)c(C)c(O)c(C)c1CN(C)CCOc1cc(C)ccc1C(C)C
93 | 172 | O=C(O)COc1nn(-c2ccccc2)cc1-c1ccccc1
94 | 189 to 191 | CCOC(=O)C1=C(C(=O)O)CC(C(=O)O)([N+](=O)[O-])C=C1 (stereo not given)
95 | 250 to 252 | N#CCC(=O)Nc1ccc(-c2ncn(-c3ccc(OC(F)(F)F)cc3)n2)cc1
96 | 177 to 179 | O=C(O)COc1cc(F)c(-c2ccccc2)cc1C(=S)NCc1cccc([N+](=O)[O-])c1
97 | 124 to 126 | CCCN(Cc1ccc(-c2ccccc2-c2nc(=O)o[nH]2)cc1)c1nn(C)cc1C(=O)O
98 | 101 to 103 | COc1cccc(C2=C(CC(C)N3CCCCC3)C(=O)N(C)CCC2)c1 (stereo not given)
99 | 109 | CN(CCNC(=NCCSCc1csc(NC(=N)N)n1)NC#N)CCN(Cc1ccc(F)cc1)c1ccccn1
100 | 135 to 140 | COCC1(CC(=O)O)OCC(=O)c2c1[nH]c1ccccc21 (stereo not given)
